Measurements taken from PMC6009956, “Design, synthesis and biological activity of N^4-phenylsubstituted-7H-pyrrolo[2,3-d]pyrimidin-4-amines as dual inhibitors of aurora kinase A and epidermal growth factor receptor kinase” (Journal of Enzyme Inhibition and Medicinal Chemistry, 2017).
Read-outs that look alike come from different tables or passages of the source.

Assays:
EGFR = EGFR (Homo sapiens, UniProt P00533); experiment: ADP-Glo kinase assay, EGFR; assay type: biochemical; parameters: purchased BPS Bioscience (assay run externally by the vendor)
Chain of EGFR (P00533 25-1210): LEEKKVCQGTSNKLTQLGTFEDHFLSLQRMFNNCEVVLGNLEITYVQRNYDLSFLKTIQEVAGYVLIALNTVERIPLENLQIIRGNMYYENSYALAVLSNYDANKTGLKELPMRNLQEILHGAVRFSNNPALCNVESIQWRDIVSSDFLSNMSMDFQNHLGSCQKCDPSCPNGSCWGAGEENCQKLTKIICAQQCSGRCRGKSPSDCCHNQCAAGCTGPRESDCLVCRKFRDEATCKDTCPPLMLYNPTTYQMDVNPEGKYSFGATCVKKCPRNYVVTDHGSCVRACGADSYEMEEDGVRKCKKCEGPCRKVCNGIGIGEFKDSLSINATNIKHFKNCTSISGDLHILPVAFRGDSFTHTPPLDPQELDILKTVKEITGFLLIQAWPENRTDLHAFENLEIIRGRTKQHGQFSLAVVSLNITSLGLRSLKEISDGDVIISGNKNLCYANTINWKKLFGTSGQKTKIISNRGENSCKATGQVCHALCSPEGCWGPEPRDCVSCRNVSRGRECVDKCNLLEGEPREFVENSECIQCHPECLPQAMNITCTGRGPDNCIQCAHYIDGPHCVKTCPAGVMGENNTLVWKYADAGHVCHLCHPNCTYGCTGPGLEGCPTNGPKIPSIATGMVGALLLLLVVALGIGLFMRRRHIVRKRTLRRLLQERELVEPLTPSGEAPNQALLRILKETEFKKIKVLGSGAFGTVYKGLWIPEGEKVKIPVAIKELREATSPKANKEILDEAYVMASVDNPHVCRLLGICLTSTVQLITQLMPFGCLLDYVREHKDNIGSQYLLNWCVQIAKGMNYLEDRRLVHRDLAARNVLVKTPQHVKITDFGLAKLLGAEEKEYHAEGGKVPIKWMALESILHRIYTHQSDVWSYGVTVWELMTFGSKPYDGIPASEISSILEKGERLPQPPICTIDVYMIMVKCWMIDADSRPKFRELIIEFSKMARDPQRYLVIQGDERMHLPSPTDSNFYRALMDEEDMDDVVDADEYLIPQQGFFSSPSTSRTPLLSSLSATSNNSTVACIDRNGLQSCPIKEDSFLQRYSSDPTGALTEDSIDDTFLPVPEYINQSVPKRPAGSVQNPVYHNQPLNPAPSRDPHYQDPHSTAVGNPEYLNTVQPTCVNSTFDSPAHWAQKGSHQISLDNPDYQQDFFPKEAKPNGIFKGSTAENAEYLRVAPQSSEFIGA

aurora A kinase (AURKA) = biological target: T1, aurora A kinase (AURKA) (Homo sapiens, UniProt O14965); experiment: ADP-Glo kinase assay, Aurora A; assay type: biochemical
T1 construct: purchased BPS Bioscience (assay run externally by the vendor)
T1 sequence (O14965 1-403): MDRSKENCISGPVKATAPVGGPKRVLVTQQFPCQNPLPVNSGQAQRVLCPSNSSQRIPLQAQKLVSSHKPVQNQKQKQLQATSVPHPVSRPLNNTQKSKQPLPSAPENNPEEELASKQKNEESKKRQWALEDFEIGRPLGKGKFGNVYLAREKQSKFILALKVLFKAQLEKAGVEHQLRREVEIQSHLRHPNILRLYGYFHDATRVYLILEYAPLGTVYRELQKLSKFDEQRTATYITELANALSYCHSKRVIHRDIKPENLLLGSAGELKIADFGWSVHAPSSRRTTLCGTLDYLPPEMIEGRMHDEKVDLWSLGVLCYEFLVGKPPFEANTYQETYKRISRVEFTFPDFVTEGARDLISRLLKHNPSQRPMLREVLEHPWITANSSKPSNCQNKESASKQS

IC50 (EGFR; 10 µM ATP, triplicate, read-out: EGFR IC50 ± SD): 0.111 ± 0.0151 µM
IC50 (EGFR; 10 µM ATP/0.2 mg/ml Poly-Glu-Tyr, read-out: EGFR IC50 (dose-response curve, supplement)): 0.11 µM
EGFR % Activity Set1 (EGFR; Log[nM] 0): 93%
EGFR % Activity Set2 (EGFR; Log[nM] 0): 101%
EGFR % Activity Set3 (EGFR; Log[nM] 0): 99%
EGFR % Activity Set1 (EGFR; Log[nM] 1.0): 90%
EGFR % Activity Set2 (EGFR; Log[nM] 1.0): 91%
EGFR % Activity Set3 (EGFR; Log[nM] 1.0): 97%
EGFR % Activity Set1 (EGFR; Log[nM] 1.5): 72%
EGFR % Activity Set2 (EGFR; Log[nM] 1.5): 77%
EGFR % Activity Set3 (EGFR; Log[nM] 1.5): 83%
EGFR % Activity Set1 (EGFR; Log[nM] 2.0): 49%
EGFR % Activity Set2 (EGFR; Log[nM] 2.0): 51%
EGFR % Activity Set3 (EGFR; Log[nM] 2.0): 55%
EGFR % Activity Set1 (EGFR; Log[nM] 2.5): 24%
EGFR % Activity Set2 (EGFR; Log[nM] 2.5): 23%
EGFR % Activity Set3 (EGFR; Log[nM] 2.5): 29%
EGFR % Activity Set1 (EGFR; Log[nM] 3.0): 11%
EGFR % Activity Set2 (EGFR; Log[nM] 3.0): 10%
EGFR % Activity Set3 (EGFR; Log[nM] 3.0): 12%
EGFR % Activity Set1 (EGFR; Log[nM] 3.5): 5%
EGFR % Activity Set2 (EGFR; Log[nM] 3.5): 5%
EGFR % Activity Set3 (EGFR; Log[nM] 3.5): 5%
EGFR % Activity Set1 (EGFR; Log[nM] 4.0): 4%
EGFR % Activity Set2 (EGFR; Log[nM] 4.0): 4%
EGFR % Activity Set3 (EGFR; Log[nM] 4.0): 5%
EGFR % Activity Set1 (EGFR; Log[nM] 4.5): 5%
EGFR % Activity Set2 (EGFR; Log[nM] 4.5): 5%
EGFR % Activity Set3 (EGFR; Log[nM] 4.5): 5%
EGFR % Activity Set1 (EGFR; Log[nM] 5.0): 4%
EGFR % Activity Set2 (EGFR; Log[nM] 5.0): 4%
EGFR % Activity Set3 (EGFR; Log[nM] 5.0): 4%
IC50 (aurora A kinase (AURKA); 10 µM ATP, triplicate, read-out: AURKA IC50 ± SD): 13.3 ± 3.57 µM
IC50 (aurora A kinase (AURKA); 10 µM ATP/0.2 mg/ml Kemptide, read-out: Aurora A IC50 (dose-response curve, supplement)): 12.9 µM
Aurora A % Activity Set1 (aurora A kinase (AURKA); Log[nM] 0): 100%
Aurora A % Activity Set2 (aurora A kinase (AURKA); Log[nM] 0): 94%
Aurora A % Activity Set3 (aurora A kinase (AURKA); Log[nM] 0): 93%
Aurora A % Activity Set1 (aurora A kinase (AURKA); Log[nM] 1.0): 97%
Aurora A % Activity Set2 (aurora A kinase (AURKA); Log[nM] 1.0): 97%
Aurora A % Activity Set3 (aurora A kinase (AURKA); Log[nM] 1.0): 97%
Aurora A % Activity Set1 (aurora A kinase (AURKA); Log[nM] 1.5): 103%
Aurora A % Activity Set2 (aurora A kinase (AURKA); Log[nM] 1.5): 99%
Aurora A % Activity Set3 (aurora A kinase (AURKA); Log[nM] 1.5): 106%
Aurora A % Activity Set1 (aurora A kinase (AURKA); Log[nM] 2.0): 97%
Aurora A % Activity Set2 (aurora A kinase (AURKA); Log[nM] 2.0): 100%
Aurora A % Activity Set3 (aurora A kinase (AURKA); Log[nM] 2.0): 98%
Aurora A % Activity Set1 (aurora A kinase (AURKA); Log[nM] 2.5): 102%
Aurora A % Activity Set2 (aurora A kinase (AURKA); Log[nM] 2.5): 96%
Aurora A % Activity Set3 (aurora A kinase (AURKA); Log[nM] 2.5): 95%
Aurora A % Activity Set1 (aurora A kinase (AURKA); Log[nM] 3.0): 77%
Aurora A % Activity Set2 (aurora A kinase (AURKA); Log[nM] 3.0): 81%
Aurora A % Activity Set3 (aurora A kinase (AURKA); Log[nM] 3.0): 79%
Aurora A % Activity Set1 (aurora A kinase (AURKA); Log[nM] 3.5): 65%
Aurora A % Activity Set2 (aurora A kinase (AURKA); Log[nM] 3.5): 63%
Aurora A % Activity Set3 (aurora A kinase (AURKA); Log[nM] 3.5): 63%
Aurora A % Activity Set1 (aurora A kinase (AURKA); Log[nM] 4.0): 46%
Aurora A % Activity Set2 (aurora A kinase (AURKA); Log[nM] 4.0): 42%
Aurora A % Activity Set3 (aurora A kinase (AURKA); Log[nM] 4.0): 44%
Aurora A % Activity Set1 (aurora A kinase (AURKA); Log[nM] 4.5): 41%
Aurora A % Activity Set2 (aurora A kinase (AURKA); Log[nM] 4.5): 39%
Aurora A % Activity Set3 (aurora A kinase (AURKA); Log[nM] 4.5): 39%
Aurora A % Activity Set1 (aurora A kinase (AURKA); Log[nM] 5.0): 34%
Aurora A % Activity Set2 (aurora A kinase (AURKA); Log[nM] 5.0): 34%
Aurora A % Activity Set3 (aurora A kinase (AURKA); Log[nM] 5.0): 32%
Structure (SMILES): c1ccc(Oc2ccc(Nc3ncnc4[nH]ccc34)cc2)cc1 [Compound 17, N^4-(4-phenoxyphenyl)-7H-pyrrolo[2,3-d]pyrimidin-4-amine]
